Source: patent publication US20130190299A1, “METHODS AND COMPOSITIONS FOR TREATMENT OF MULTIPLE SCLEROSIS” (Victoria Link Ltd., priority 2010, published 2013)

Columns and labels:
[1] = system: bone marrow-derived macrophages; experiment: Bone marrow-derived macrophages treated in vitro with or without LPS; conditions: for macrophage viability (MTT dye reduction): presence or absence of LPS
Protocol: Identification of how risperidone alters pro-inflammatory and/or anti-inflammatory immune responses is necessary.
Studies were conducted herein to evaluate the regulation of macrophage proinflammatory responses in vitro.

prolactin = experiment: Serum prolactin in treated mice; assay type: in vivo; conditions: for serum prolactin: immunized and unimmunized mice
[2] = Body weight of treated normal and immunized mice; conditions: for body weight in normal mice: normal (unimmunized) mice
[3] = system: auto-reactive T cell responses; experiment: Cytokine production and T cell proliferation in response to MOG antigen or ConA, cells from treated immunized mice; assay type: cell-based, C57BL/6 mice
Source text: (§1) Shown are the mean and standard error of the mean (n=5 mice per group).
as §1, §1, §1, §1, §1
FIG. 5A illustrates exemplary antigen specific (L-17 production (pg/ml) in C57BL/6 mice, which were treated with risperidone or vehicle alone, and immunized to induce EAE 40 days earlier. Shown are the mean and standard error of the mean (n=5-10 mice per group).
FIG. 5B illustrates exemplary antigen specific interferon y production (pg/ml) in C57BL/6 mice, which were treated with risperidone or vehicle alone, and immunized to induce EAE 40 days earlier. Shown are the mean and standard error of the mean (n=5-10 mice per group).
FIG. 5C illustrates exemplary antigen specific IL-10 production (pg/ml) in C57BL/6 mice, which were treated with risperidone or vehicle alone, and immunized to induce EAE 40 days earlier. Shown are the mean and standard error of the mean (n=5-10 mice per group).
FIG. 5D illustrates exemplary T cell proliferation in counts per minute in immunized and normal C57BL/6 mice, which were treated with risperidone or vehicle alone. Shown are the mean and standard error of the mean (n=5-10 mice per group).
(§2) The effect of drug […] draining lymph node (LN) cells and splenocytes from untreated and risperidone-treated, immunized or unimmunized mice. Cytokine production in response to myelin oligodendrocyte glycoprotein antigen (MOG) can be assessed by cytokine bead assay, which measures 10 cytokines simultaneously, or ELISA, and proliferation can be measured by ^3H thymidine uptake. Cellular profiles in the spleen and lymph node cells can be determined by flow cytometric analysis and can include markers for helper T cells, T regulatory cells, and macrophages.

microglia = experiment: Microglial reactivity by Iba-1 expression in brains of immunized mice; assay type: in vivo
Protocol: FIG. 9A illustrates exemplary Iba-1 expression on microglia in the cerebellum of mice. […] Tissue samples were taken at peak disease (15 days post immunization). Shown are the scores for microglia reactivity (Iba score) and disease.
One group (risperidone d11) was immunized but only received risperidone treatment starting at day 11 (i.e. after disease onset). Scores for Iba-1 reactivity were assessed blinded and derived from a combined score for Iba intensity (0-3) and # Iba+ foci (0-3).
Scores for Iba-1 reactivity were assessed blinded and derived from a combined score (0-6) for Iba intensity (0-3) and number of Iba+ foci (0-3). Scores for the following brain regions were combined: cerebellum, brain stem, hippocampus, and olfactory bulb (0-24).
Scores for Iba-1 reactivity in the cerebellum were assessed blinded and derived from a combined score (0-6) for Iba intensity (0-3) and number of Iba+ foci (0-3).
Studies were performed to assess microglial reactivity via the expression of Iba-1 (FIG. 9A-F).

[4] = system: splenic macrophages (F4/80+ cells); experiment: Activation markers on splenic macrophages of immunized mice at peak disease (flow cytometry); assay type: in vivo, C57BL/6 mice; conditions: risperidone 3 mg/kg/day
Protocol: Studies were also conducted herein to evaluate the regulation of macrophage proinflammatory responses in vivo.

EAE [5] = system: EAE
Protocol: FIG. 1A illustrates an exemplary treatment of C57BL/6 mice with risperidone (administered in drinking water; 3 mg/kg/day) following immunization to induce EAE with MOG (myelin oligodendrocyte glycoprotein) peptide in complete Freund's adjuvant. Disease score is based on the progressive ascending paralysis that characterizes EAE in this animal model where 0=normal and 5=complete body paralysis (i.e. moribund).
FIG. 1B illustrates an exemplary treatment of C57BL/6 mice with risperidone (administered in drinking water; 3 mg/kg/day) following immunization to induce EAE. The data is from 4 separate and independent experiments.
AUC was measured from days 0-26 and the results are from 4 separate and independent experiments.
In these preliminary studies risperidone was given in the drinking water at a calculated dose of 1 or 3 mg/kg/day.
Commonly this time period is between 13-20 days post immunization with myelin oligodendrocyte glycoprotein (50 μg/mouse) in complete Freund's adjuvant and injected i.p with pertussis toxin (200 ng/mouse) on days 0 and 2. Treatment during the “chronic” stage (when disease scores remain stable) may begin 30 days post immunization with myelin oligodendrocyte glycoprotein. For all of these studies, the optimal dose of risperidone may be used as determined by the experiments described above. […] This model is well established and has the added benefit of having many different immunological reagents available for use in the C57BL/6 system.

al-adrenergic receptors = conditions: cited from earlier work
splenocytes = experiment: Cellular profile of spleen in treated mice (flow cytometry); assay type: in vivo, C57BL/6 mice
Source text: as §2, with “drug treatment on antigen-specific immune responses can be determined at 8 (pre-onset),” for “drug”

α2-adrenergic receptors = conditions: cited from earlier work
[6] = Pajonk, 2004, cited from earlier work
cholinergic receptors = conditions: cited from earlier work
EAE [7] = experiment: EAE model in BALB/c mice immunized with PLP peptide
EAE [8] = experiment: EAE model in IL-4Ra-deficient BALB/c mice; assay type: in vivo; conditions: BALB/c mice deficient in IL-4Ra
[9] = target: dopaminergic D2 receptors (Homo sapiens, UniProt P14416); conditions: cited from earlier work
[10] = system: bone marrow-derived macrophages; conditions: positive control; La Flamme, unpublished results; cited from earlier work
[11] = 20 μg/ml risperidone or 10 μ/ml clozapine
[12] = 20 μg/ml risperidone or 10 μ/ml clozapine, versus vehicle-treated macrophages
[13] = chronic stage, 40 days post immunization
[14] = peak disease, 21 days post immunization
[15] = chronic stage of disease, 40 days after immunization

dopaminergic D2 receptors, sequence (P14416 whole entry): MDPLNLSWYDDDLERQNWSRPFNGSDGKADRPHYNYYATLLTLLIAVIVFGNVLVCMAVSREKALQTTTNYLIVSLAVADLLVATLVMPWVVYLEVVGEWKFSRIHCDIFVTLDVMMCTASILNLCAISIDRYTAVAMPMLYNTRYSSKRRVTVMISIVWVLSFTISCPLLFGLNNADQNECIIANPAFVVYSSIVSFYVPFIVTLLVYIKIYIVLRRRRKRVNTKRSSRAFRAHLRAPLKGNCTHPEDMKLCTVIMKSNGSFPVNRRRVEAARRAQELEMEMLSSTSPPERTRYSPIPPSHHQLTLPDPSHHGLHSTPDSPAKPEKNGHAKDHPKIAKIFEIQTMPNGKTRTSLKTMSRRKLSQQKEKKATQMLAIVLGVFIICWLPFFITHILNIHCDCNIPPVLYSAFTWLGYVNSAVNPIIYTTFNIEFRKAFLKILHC

CN1CCN(C2=Nc3cc(Cl)ccc3Nc3ccccc32)CC1 [clozapine]
macrophage viability (MTT dye reduction) [1, 11]: fully viable | serum prolactin (prolactin): not observed | body weight in normal mice [2]: promotes weight gain

Cc1nc2n(c(=O)c1CCN1CCC(c3noc4cc(F)ccc34)CC1)CCCC2 [risperidone, 3-[2-[4-(6-fluoro-1,2-benzisoxazol-3-yl)-1-piperidinyl]ethyl]-6,7,8,9-tetrahydro-2-methyl-4H-pyrido[1,2-a]pyrimidin-4-one]
macrophage viability (MTT dye reduction) [1, 11]: fully viable | IL-12 production in response to LPS [1, 12]: produce less | NO production in response to LPS [1, 12]: produce less | IL-10 production in response to LPS ([1]; risperidone 20 μg/ml, versus vehicle-treated macrophages): produce more | production of IL-10 with polyclonal stimulus (ConA) ([3]; 21 days post immunization): no alteration | production of INF-γ with polyclonal stimulus (ConA) ([3]; 21 days post immunization): no alteration | MOG specific IFN-γ production [3, 13]: enhance | MOG-specific IL-10 production [3, 13]: no effect | MOG-specific IL-17 production [3, 13]: no effect | MOG-specific proliferation [3, 13]: no effect | production of IFN-γ in response to MOG antigen [3, 14]: does not alter | production of IL-10 in response to MOG antigen [3, 14]: significantly reduce | production of IL-17 in response to MOG antigen [3, 14]: significantly reduce | microglial reactivity (Iba-1 expression) (microglia; immunized mice, peak disease (15 days post immunization), cerebellum, brain stem, hippocampus, olfactory bulb): greatly reduced | microglial reactivity (Iba-1 expression), treatment after disease onset (microglia; treatment starting at day 11 post-immunization, assessed on day 15): reduces microglial reactivity | CD40 expression on splenic macrophages [4]: reduced CD40 expression | number of CD40-expressing splenic macrophages [4]: not reduced | MHC class II expression on splenic macrophages ([4]; clozapine 30 mg/kg/day, versus vehicle-treated immunized mice): reduced MHC class II expression | protective effect in dose-response (EAE [5]; 3 mg/kg/day, p<0.0001 by 2-way ANOVA): significant protective effect | area under the curve (AUC), total disease burden (EAE [5]; AUC of disease score, risperidone days 0-26, 4 independent experiments): reduction | average disease score during the chronic stage (EAE [5]; drinking water from one day before immunization): stable reduction | detrimental effects on the mice (EAE [5]; risperidone 1 or 3 mg/kg/day, immunized or unimmunized mice, aside from slight weight gain): no detrimental effects | efficacy of higher versus lower dose (EAE [5]; risperidone 3 vs 1 mg/kg/day, clozapine 30 vs 15 mg/kg/day): 3 mg/kg/day is more effective | time of onset or incidence of EAE (EAE [5]; risperidone daily from the time of immunization): does not alter | binding to al-adrenergic receptors (al-adrenergic receptors): binds | serum prolactin (hyperprolactinemia) (prolactin; BALB/c mice): develop hyperprolactinemia | serum/plasma prolactin (hyperprolactinemia) (prolactin; IL-4Ra-deficient BALB/c mice): develop hyperprolactinemia | serum prolactin (prolactin): high levels of serum prolactin | number of helper T cells (CD4+CD25−) in the spleen (splenocytes; [15]): does not alter | number of neutrophils (Gr1+ cells) in the spleen (splenocytes; [15]): reduce | number of regulatory T cells (CD4+CD25+ Treg) in the spleen (splenocytes; [15]): enhance | overall immune cells in the spleen (total splenocyte numbers) (splenocytes; peak disease (day 21), risperidone 3 mg/kg/day, clozapine 30 mg/kg/day, unimmunized and immunized mice): does not result in overall loss | affinity for α2-adrenergic receptors (α2-adrenergic receptors): lower affinity | maximum tolerated dose in mice [6]: unable to identify a maximum tolerated dose | toxicity ([6]; mice treated daily with doses up to 10 mg/kg/day for 18 months): no toxicity | affinity for cholinergic receptors (cholinergic receptors): no affinity | % incidence (EAE [7]; 2 independent experiments, same for vehicle group): 73% | disease severity (EAE [7]; oral, from one day before immunization with PLP): significantly reduced disease severity | weight loss associated with EAE ([2]; mice immunized with MOG peptide): reduce the weight loss | body weight in normal mice [2]: promotes weight gain | reduction in disease symptoms (EAE [8]): do not experience a reduction in disease symptoms | % incidence versus vehicle (EAE [8]; 2 independent experiments): no difference in % incidence | affinity for dopaminergic D2 receptors [9]: high affinity

Glatiramer acetate
pro-inflammatory (IL-12) cytokine production by LPS-stimulated macrophages [10]: reduce
